Like-named read-outs stand apart in the source and are kept apart here.
Columns and labels:
[1] = system: osteoclast differentiation; experiment: Inhibitory effects on osteoclast differentiation (co-culture of bone marrow cells with osteoblast, TRAP staining); assay type: cell-based, mice; conditions: co-culture of bone marrow cells and osteoblast, 7 days, TRAP-positive osteoclasts versus controls; for inhibition at 1 µM: Mus musculus, Osteoclast, 168 h, read-out: % inhibitory activity on osteoclastogenesis
Summary of the method: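 Bone marrow cells from 6–8-week male ddY mice co-cultured with neonatal ICR mouse calvarial osteoblasts in α-MEM/FBS with dexamethasone (10^−7M) and vitamin D3 (10^−8M) for 7 days, compound and medium renewed every 2–3 days. TRAP-positive cells with ≥3 nuclei counted; inhibition given as percent of control.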

[2] = system: mouse models of ovalbumin-induced asthma; experiment: Therapeutic effect in mouse model of asthma induced with ovalbumin (lung weight, total leukocytes in blood and BALF); assay type: in vivo, C57BL/6 mice; conditions: for Changes on the lung weight, Relative (%) / Total leukocytes in peripheral blood (×10^3/1 mm^3) / Total leukocytes in BALF (×10^5/1 ml): 200 mg/kg oral once a day; for Changes on the lung weight, Relative (%): % of body weight, vehicle control 0.780 ± 0.103, sham 0.694 ± 0.049; for Total leukocytes in peripheral blood (×10^3/1 mm^3): vehicle control 14.49 ± 0.88, sham 10.27 ± 0.93; for Total leukocytes in BALF (×10^5/1 ml): vehicle control 75.68 ± 4.67, sham 51.75 ± 2.15
Method: The benzamidine compounds were assated for therapeutic effect on allergic inflammation in mouse models of ovalbumin-induced asthma. Starting on the day of immunization the benzamidine compounds were dosed for 17 consecutive days. The experimental animals were re-exposed to ovalbumin 14 days after the sensitization and then sacrificed 3 days after the re-exposure. Changes in lung weight, cellular components of peripheral blood and bronchoalveolar lavage fluid, and lung histopathology were observed.
A total of 110 female C57BL/6 mice (7-week-old, SLC, Japan) were adapted to a laboratory environment for 6 days before being used in earnest experiments. While being housed at a densirt of five in a plastic cage, the experimental animals were breed in a breeding room with controlled temperature (20-25° C.) and humidity (30-35%). Under light-dark cycles of 12 hours, mice were allowed to have free access to feedstuff and tap water. While asthma was induced in 100 mice by ovalbumin, 10 mice were used as a non-treated group.
200 mg of benzamidine compounds (Methansulfonic acid or Hydrochloride) were completely dissolved in 5 ml of sterilized distilled water. The benzamidine compound in the solutions was orally administered at doses of 200 mg per kg of body weight once a day from the day of the sensitization with ovalbumin. The control group was administered with equal volumes of sterilized distilled water in the same manner.
A solution of 200 μg of ovalbumin (Grade VI; Sigma, st. Louis, Mo., USA) and 180 mg of aluminium hydroxide (Al(OH)3, dried powder gel; Aldrich, Milwaukee, USA) in 4 ml of physiological saline was allowed to stand at 4° C. overnight and was administered to the experimental animals (200 μl, abdominal injection) for sensitization. As for the non-treated group, a solution of only aluminium hydroxide in saline was injected. 15 days after sensitization, a 1.5% ovalbumin solution was sprayed in air using a nebulizer, followed by exposing the experimental animals to the spray for 10 min to induce asthma therein. The non-treated group was exposed only to saline in the same manner. All the experimental animals were sacrificed 3 days after the exposure.
On the final day of experiment, the lungs were separated form adjacent organs. The removed lungs were weight among individual animals, the relative weight of the lungs was calculated as a percentage of body weight using the following Equation 3. Relative weight of Lung(%)=(Absolute lung weight/Body weight)×100 Equation 3
On the final day of experiment, all the experimental animals were etherized and underwent laparotomy to expose the abdominal vena cava, from which 1 ml of blood was the taken. Using a hemocytometer, a blood sample was measured for total leukocyte counts in a ×10^3/1 mm^3 units.
On the final day of experiment, secretions present in bronchi and alveola were examined for cyrological constitution. After veing etherized, the experimental animals were operated to open the cervical region and the thorax. The jugular vein was allowed to bleed, followed by endotracheal intubation. 3 ml of phosphate buffered saline was injected twice through the tube and the thorax was massaged for 30 sec to obtain cell suspension from the lungs. Using a hemocytometer, a […] was measured for total leukocyte counts in a ×10^5/1 ml units.

[3] = 200 mg/kg oral once a day from sensitization, vehicle control 0.134 ± 0.012, sham 0.110 ± 0.009

## Cc1sc(-c2cccnc2)nc1-c1ccc(OCCCCCOc2ccc(C(=N)NO)cc2)cc1 [Example 13, N-hydroxy-4-(5-[4-(5-methyl-2-pyridin-3-yl-1,3-thiazol-4-yl)phenoxy]pentoxy)-benzamidine]
[1]; 1 μm
  inhibition at 1 µM: 73.5%
[2]; [3]
  Changes on the lung weight, Absolute: 0.108 ± 0.009 g
[2]
  Changes on the lung weight, Relative (%): 0.695 ± 0.075%
  Total leukocytes in peripheral blood (×10^3/1 mm^3): 14.06 ± 1.07 ×10^3/1 mm^3
  Total leukocytes in BALF (×10^5/1 ml): 72.75 ± 4.88 ×10^5/1 ml

## CC(C)c1nc(-c2ccc(OCCCCCOc3ccc(C(=N)NO)cc3)cc2)c(CC2CCCC2)s1 [Example 47, N-hydroxy-4-(5-[4-(5-cyclopentylnnethyl-2-isopropyl-1,3-thiazol-4-yl)phenoxy]pentoxy)-benzamidine]
[1]; 1 μm
  % inhibitory activity on osteoclastogenesis: 90.0%
[2]; [3]
  Changes on the lung weight, Absolute (g): 0.122 ± 0.010 ## g
[2]
  Changes on the lung weight, Relative (%): 0.706 ± 0.059%
  Total leukocytes in peripheral blood (×10^3/1 mm^3): 12.55 ± 1.35 # ×10^3/1 mm^3
  Total leukocytes in BALF (×10^5/1 ml): 62.40 ± 7.56 # ×10^5/1 ml

## CCCN(CCC)c1nc(-c2ccc(OCCCCCOc3ccc(C(=N)NO)cc3)cc2)c(CC)s1 [Example 138, N-hydroxy-4-(5-[4-(2-dipropylamino-5-ethyl-1,3-thiazol-4-yl)phenoxy]pentoxy)-benzamidine]
[1]; 1 m
  inhibition at 1 µM: 91%
[2]; [3]
  Changes on the lung weight, Absolute: 0.113 ± 0.011 g
[2]
  Changes on the lung weight, Relative (%): 0.691 ± 0.065 %
  Total leukocytes in peripheral blood (×10^3/1 mm^3): 13.60 ± 0.83 # ×10^3/1 mm^3
  Total leukocytes in BALF (×10^5/1 ml): 68.83 ± 5.29 ## ×10^5/1 ml
